pIC50: −log10 of the molar value.
Columns and labels:
[1] = target: hERG (human Ether-a-go-go Related Gene) channel (Homo sapiens, UniProt Q12809); assay: hERG channel inhibition effect (whole-cell patch clamp); type: cell-based; conditions: 22 to 25° C.
Experimental: The hERG (human Ether-a-go-go Related Gene) channel inhibition effect of each test compound was examined with the following patch clamp method.
Under a fixed potential, an hERG current that passed through the whole cell membrane was recorded with the whole-cell patch clamp method.
To confirm the hERG current, the holding potential was set to −80 mV, and depolarizing pulses at −50 mV for 110 msec and at 20 mV for 4 sec and a subsequent repolarizing pulse at −50 mV for 2 sec were provided at a frequency of once per 15 seconds. After the stabilization of the hERG tail current obtained was confirmed, an application was initiated. The pulses were continuously provided also during the application.
The sampling frequency was set to 5 kHz, and Lowpass Filter was applied at 2 kHz. […]
hERG currents were measured by using an amplifier for patch clamping (Axopatch 200B, Molecular Devices, LLC), and electric signals obtained were recorded in a computer via recording/analysis software for patch clamping (pCLAMP 10, Molecular Devices, LLC).
The maximum tail current value was determined on the basis of the current value with the depolarizing pulse at −50 mV for 110 msec, and the change rate (suppression rate) 5 minutes after the initiation of application to the maximum tail current value before application of the test compound was calculated.

[2] = Metabolic stability with mouse hepatic microsomes; type: in vitro ADME
Experimental: Metabolic stability in mouse hepatic microsomes was evaluated with the following method.
• (1) Mouse hepatic microsomes: 20 mg/mL • (2) Test compound: 1.1 mM DMSO solution • (3) Potassium phosphate buffer solution: 66.7 mM (pH 7.4) • (4) NADPH solution: 10 mM in potassium phosphate buffer solution • (5) Quenching solution: 0.5% formic acid-acetonitrile solution with warfarin as internal standard substance 2. Method
Into a propylene tube, 971.5 μL of the potassium phosphate buffer solution and 27.5 μL of the mouse hepatic microsomes were put and suspended. Thereto, 1 μL of a test compound was added, and 180 μL was taken from this mixture and transferred into another tube. The mixture was preincubated at 37° C. for 5 minutes, and 20 μL of the NADPH solution (for the case with an incubation time of 30 minutes) or 20 μL of the potassium phosphate buffer solution (for the case with an incubation time of 0 minutes) was then added thereto. After incubation, 200 μL of the quenching solution was added to terminate the reaction. Subsequently, centrifugation was performed at 3220×g for 20 minutes, and the concentration of the unchanged form of the test compound in 200 μL of the supernatant was measured with LC-MS/MS. On the basis of the peak area obtained for the unchanged form, the residual rate (%) of the unchanged form was calculated as that for the case with an incubation time of 0 minutes was assumed as 100%.

[3] = system: pain induced by carrageenan (mechanical allodynia); assay: Suppression effect on pain induced by carrageenan (von Frey escape score); type: in vivo, C57BL/6J mice; conditions: mean ± SE
Experimental: This experiment was carried out with reference to Science Translational Medicine 6, 251ra118 (2014). Animals used were 7-week-old male C57BL/6J mice (Charles River Laboratories Japan, Inc.). To induce mechanical allodynia to a sole part, carrageenan was subcutaneously administered to the sole of the left hind limb of each mouse. The escape response against mechanical stimulation 180 minutes after the induction was measured by using a von Frey filament with bending force (0.16 grams) to the sole surface of the left hind limb in the ascending direction. […] The commercially available statistical program SAS SYSTEM (SAS Software Release 9.1.3; SAS Institute Japan Ltd.) was used for the significance test.

[4] = Metabolic stability with human hepatic microsomes; type: in vitro ADME; conditions: human hepatic microsomes 0.1 mg protein/mL, 0.1 μmol/L test compound, after 30 minutes, 37° C.
Experimental: The specific method is as follows.
• (1) Fifty microliter-portions were taken from 0.2 μmol/L test compound diluted with β-NADPH solution. • (2) Fifty microliters of 0.2 mg protein/mL human hepatic microsome solution was added to each (except for a sample with a reaction time of 0 minutes). • (3) Incubation was performed with shaking at 37° C. for 30 minutes (concentration in reaction sample: 0.1 μmol/L test compound, 0.1 mg protein/mL human hepatic microsome). • (4) After incubation, 400 μL of methanol was added to terminate the reaction. • (5) To the sample with a reaction time of 0 minutes, 50 μL of 0.2 mg protein/mL hepatic microsome solution was added. • (6) Each of the samples from (4) and (5) was left to stand at −20° C. for 30 minutes or longer, and then centrifuged at 4° C. and 3,000 rpm for approximately 10 minutes. • (7) The supernatant was subjected to measurement with LC/MS/MS, and, based on the peak area obtained for the unchanged form, the residual rate (%) of the unchanged form was calculated as that for the case with an incubation time of 0 minutes was assumed as 100%.

[5] = target: T1, human recombinant ALDH2 enzyme (Homo sapiens, UniProt P05091); assay: ALDH2 activation effect (acetaldehyde oxidation rate, PicoProbe Aldehyde dehydrogenase Activity Assay Kit); type: biochemical
T1 construct: purchased BioVision Inc
T1 sequence (P05091 18-517): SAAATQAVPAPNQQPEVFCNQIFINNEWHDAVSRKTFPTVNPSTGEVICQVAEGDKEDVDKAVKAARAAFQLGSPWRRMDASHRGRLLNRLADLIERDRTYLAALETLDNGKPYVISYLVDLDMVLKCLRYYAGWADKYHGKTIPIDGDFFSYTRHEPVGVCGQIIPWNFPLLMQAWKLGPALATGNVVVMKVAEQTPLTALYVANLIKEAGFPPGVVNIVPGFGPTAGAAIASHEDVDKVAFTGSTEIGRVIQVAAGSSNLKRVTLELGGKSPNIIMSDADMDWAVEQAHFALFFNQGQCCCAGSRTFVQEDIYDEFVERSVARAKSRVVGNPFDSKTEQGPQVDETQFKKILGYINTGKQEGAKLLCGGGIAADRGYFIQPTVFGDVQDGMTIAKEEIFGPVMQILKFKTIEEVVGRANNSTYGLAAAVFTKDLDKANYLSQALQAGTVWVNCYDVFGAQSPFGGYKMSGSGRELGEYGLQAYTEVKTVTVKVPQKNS
Experimental: The activation effect of each test compound on the acetaldehyde oxidation rate of ALDH2 was measured with the following method. A test was conducted by using a commercially available PicoProbe™ Aldehyde dehydrogenase Activity Assay Kit (manufactured by BioVision Inc.) with reference to an instruction attached to the product under the following conditions. To each well of a 384-well plate, the following (1) to (3) were sequentially added with a pipette: • (1) 10 μL of solution obtained by dissolving and diluting a human recombinant ALDH2 enzyme (manufactured by BioVision Inc.) with ALDH assay Buffer to reach 3-μg/mL; • (2) 10 μL of 30 μM or 90 μM test compound solution (with 3% DMSO) prepared by using ALDH assay Buffer; and • (3) 10 μL of Reaction mix composed with ratio of 8.6 μL of ALDH assay Buffer, 0.6 μL of PicoProbe, 0.3 μL of Substrate Mix, and 1.5 μL of Acetaldehyde.
Before addition of (3), incubation was performed at room temperature for 5 minutes. After addition of (3), fluorescence intensity was measured at room temperature every 2.5 minutes over a period of 180 minutes by using an EnSight (manufactured by PerkinElmer Inc.). Wavelengths of 535 nm and 587 nm were used for fluorescence intensities of excitation and -emission, respectively.

Chain of hERG (human Ether-a-go-go Related Gene) channel (Q12809 whole entry): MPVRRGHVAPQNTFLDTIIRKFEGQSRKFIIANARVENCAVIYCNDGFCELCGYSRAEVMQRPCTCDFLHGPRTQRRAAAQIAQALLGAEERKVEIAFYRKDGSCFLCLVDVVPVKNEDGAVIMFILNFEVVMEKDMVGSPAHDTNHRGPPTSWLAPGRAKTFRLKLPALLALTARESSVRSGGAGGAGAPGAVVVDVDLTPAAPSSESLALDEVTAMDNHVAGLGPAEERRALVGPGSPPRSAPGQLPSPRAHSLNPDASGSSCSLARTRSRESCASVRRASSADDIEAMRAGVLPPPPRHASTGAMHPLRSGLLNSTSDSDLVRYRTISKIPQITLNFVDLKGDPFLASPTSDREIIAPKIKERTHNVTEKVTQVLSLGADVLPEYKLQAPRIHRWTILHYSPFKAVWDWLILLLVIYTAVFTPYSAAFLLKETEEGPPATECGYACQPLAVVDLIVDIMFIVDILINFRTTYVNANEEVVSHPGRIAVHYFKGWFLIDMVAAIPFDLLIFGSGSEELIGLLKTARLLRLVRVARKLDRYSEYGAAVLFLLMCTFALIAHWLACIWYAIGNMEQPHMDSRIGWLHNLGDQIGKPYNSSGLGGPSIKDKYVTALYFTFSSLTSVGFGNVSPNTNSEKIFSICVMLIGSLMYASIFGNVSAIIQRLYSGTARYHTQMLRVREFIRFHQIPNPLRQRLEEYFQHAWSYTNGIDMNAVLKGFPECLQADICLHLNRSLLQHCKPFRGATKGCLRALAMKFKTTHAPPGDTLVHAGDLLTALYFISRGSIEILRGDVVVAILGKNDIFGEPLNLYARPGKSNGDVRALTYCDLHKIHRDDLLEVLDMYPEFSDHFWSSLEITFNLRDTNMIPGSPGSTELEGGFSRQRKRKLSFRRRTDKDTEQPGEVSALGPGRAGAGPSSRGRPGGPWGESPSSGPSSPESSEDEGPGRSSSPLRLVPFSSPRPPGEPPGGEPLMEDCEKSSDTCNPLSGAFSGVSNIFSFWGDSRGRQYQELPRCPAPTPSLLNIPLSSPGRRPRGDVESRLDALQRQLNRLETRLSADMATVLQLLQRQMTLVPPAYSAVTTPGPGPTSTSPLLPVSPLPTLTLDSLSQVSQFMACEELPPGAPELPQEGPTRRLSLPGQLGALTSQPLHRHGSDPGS

COCc1ccc(CNC(=O)c2cc(-c3ncccc3CO)ccc2F)cc1F [Example 1, 2-Fluoro-N-(3-fluoro-4-(methoxymethyl)benzyl)-5-(3-(hydroxymethyl)pyridin-2-yl)benzamide]
pIC50 [1]: < 4.00
metabolic stability in mouse hepatic microsomes (in words) [2]: confirmed to have stability
Residual rate (%) of unchanged form ([2]; mouse hepatic microsomes, after 30 minutes, 37° C., NADPH): 90%
Pain-related total score ([3]; 2 mg/kg s.c. three times, 180 min after induction with carrageenan): 10.5 ± 1.6
Pain-related total score ([3]; 2 mg/kg s.c. three times, Pre (before carrageenan treatment)): 3.0 ± 0.3
Pain-related total score ([3]; 6 mg/kg s.c. three times, 180 min after induction with carrageenan, significant difference from Vehicle group): 8.3 ± 1.0
Pain-related total score ([3]; 6 mg/kg s.c. three times, Pre (before carrageenan treatment)): 3.0 ± 0.3
Pain-related total score ([3]; 20 mg/kg s.c. three times, 180 min after induction with carrageenan): 8.6 ± 1.4
Pain-related total score ([3]; 20 mg/kg s.c. three times, Pre (before carrageenan treatment)): 3.0 ± 0.3
Residual rate (%) of unchanged form [4]: 90%
acetaldehyde oxidation rate (rate with no test compound assumed as 100%) ([5]; concentration of test compound 10 μM): 196%
acetaldehyde oxidation rate (rate with no test compound assumed as 100%) ([5]; concentration of test compound 30 μM): 238%
